Data from patent US5369112A, “Method of treating cataracts caused by active oxygen” (Mitsubishi Gas Chemical Company, Inc., priority 1991, dated 1994).
Like-named read-outs stand apart in the source and are kept apart here.

How the values were obtained:
[1] = Superoxide scavenging activity (hypoxanthine-xanthine oxidase, DMPO spin trapping, ESR); assay type: biochemical; conditions: pH 7.3, read-out: O2^- scavenging activity IC50
Source text: Activity of PQQ esters to scavenge superoxide (O2^-) produced in the system of hypoxanthinexanthine oxidase was examined by spin trapping method [using 5,5-dimethyl-l-pyrroline-N-oxide (hereinafter referred to as "DMPO") as a spin trapping agent] where electron spin resonance (hereinafter referred to as "ESR") was used.
Hypoxanthine+2O2 →2O2^- +uric acid (xanthine oxidase)
The following reagents were successively put in a test tube and stirred after addition of the hypoxanthine 7 to initiate the reaction and the reaction mixture was transferred to a quartz cell used for measurement of ESR.
Superoxide scavenging activity of OPQ and esters thereof was examined in the same manner as in Example 1.

[2] = Hydroxy radical scavenging activity (H2O2-(Fe^2+-DTPA), DMPO spin trapping, ESR); assay type: biochemical; conditions: pH 7.3, read-out: .OH scavenging activity IC50
Source text: Activity of PQQ esters to scavenge hydroxy radical (·OH) produced in the system of H2 O2 --(Fe^2+ -DTPA) was examined by spin trapping method [using 5,5-dimethyl-1-pyrroline-N-oxide (hereinafter referred to as "DMPO") as a spin trapping agent] where electron spin resonance (hereinafter referred to as "ESR") was used. DTPA means diethylenetriamine-pentaacetic acid.
H2 O2 +Fe^2 -DTPA complex→·OH+OH^-
The following reagents were successively put in a test tube and stirred after addition of H2 O2 6 to initiate the reaction and the reaction mixture was transferred to a quartz cell used for measurement of ESR.
Hydroxy radical scavenging activity of OPQ and esters thereof was examined in the same manner as in Example 3.

mice [3] = assay: Kidney Toxicity Determined by Blood Examination (1); assay type: in vivo
Method: After lapse of one day from the administration, the mice were fasted (with feeding only water) and then after 18 hours, blood was collected and serum was obtained therefrom. Glucose, urea nitrogen and creatinine in the serum were examined by clinical examination reagent (trademark: FUJI DRYCHEMSLIDE manufactured by Fuji Photo Film Co., Ltd.).

mice [4] = conditions: mouse, in vivo, ip
Method: One group consisted of 8 mice. For administration, PQQ·2Na and OPQ and esters thereof were dissolved in physiological saline and PQQ trimethyl ester and PQQ triallyl ester were suspended in 1% Tween 80-containing physiological saline, respectively.
PQQ·2Na, PQQ trimethyl ester, PQQ triallyl ester and OPQ and esters thereof were intraperitoneally administered to mice and they were bred in the same manner as in the above acute toxicity test. Urine of the mice was taken every day and glucose concentration was measured using clinical examination reagent (trademark: […] 2 manufactured by Miles.Sankyo Co.).

[5] = system: Hydrocortisone-Induced Cataract of Hen's Eggs; assay: Effect on hydrocortisone-induced cataract of hen's eggs; assay type: in vivo, white leghorn (hen's eggs); conditions: 1 μmole at 3, 10 and 20 h after hydrocortisone; lens at 48 h
Method: Fertilized eggs of white leghorn were incubated in an incubator at a temperature of 37° C. and 70% in humidity. The day on which the incubation was started was taken to be one day old. […] eggs of 15 day old were prepared and divided into 7 groups, each of which included 5 eggs (A-G). A small hole was bored through the eggshell above air chamber of the eggs of groups B-G and 0.25 μmole (as 0.2 ml solution) of hydrocortisone sodium succinate was administered into the air chamber through the hole and then, the hole was sealed with a cellophane tape. To The eggs of groups C-G was administered 1 μmole of following compounds after 3, 10 and 20 hours from administration of hydrocortisone sodium succinate. That is, 0.2 ml of a solution of PQQ·2Na in distilled water was administered to the eggs of group C, 0.2 ml of a suspension of PQQ trimethyl ester in 1% Tween 80 solution was administered to the eggs of group D, 0.2 ml of a suspension of triallyl ester in 1% Tween 80 solution was administered to the eggs of group E, 0.2 ml of a solution of OPQ in 10 mM NaCO3 solution was administered to the eggs of group F, and 0.2 ml of a solution of methyl OPQ in 10 mM NaCO3 solution was administered to the eggs of group G.
Crystal lens was taken out after 48 hours from administration of hydrocortisone sodium succinate and degree of cataract was judged by the criteria according to the Nishigori et al method (Nishigori et al, "Investigative Ophthalmology & Visual Science", Vol. 25, page 1051, 1984).
5 The whole nucleus was hazed in white.

male mice SPF-ICR = assay: Acute toxicity test (1), intraperitoneal; conditions: mouse, in vivo, ip
Method: To male mice SPF-ICR five weeks old (supplied by Japan Charles River Co.) were intraperitoneally administered PQQ·2Na, PQQ trimethyl ester, PQQ triallyl ester, OPQ, 1-methylpropyl OPQ, 2-methylthioethyl OPQ and benzyl OPQ at dosages of 40, 80, 160 and 200 mg per kg of body weight of mouce, respectively and they were bred for 14 days at 25° C. One group consisted of 8 mice. For administration, PQQ·2Na and OPQ and esters thereof were dissolved in physiological saline and PQQ trimethyl ester and PQQ triallyl ester were suspended in 1% Tween 80-containing physiological saline, respectively.

[6] = not told; for Membrane permeation constant: bovine, 960 min
Method: Permeability of various compounds through capsule of crystal bovine lens was examined in accordance with the method mentioned in "Crystal Lens and Biochemical Mechanism thereof" (pages 436-440) edited by Shuzo Iwata (Medical Aoi Publisher). Each compound dissolved in 10 mM HEPES buffer (containing 1% DMSO in the case of PQQ triesters) was put in an apparatus for measurement of membrane permeation constant and left to stand for 16 hours at 35° C. and then amount of the compound which migrated was measured by ultraviolet absorption (243 nm for PQQ·2Na and 255 nm for PQQ esters) to obtain membrane permeation constant.

For `CC(C)c1nc2c3nc(C(=O)O)cc(C(=O)O)c3c3[nH]c(C(=O)O)cc3c2o1` [1-Methylethyl OPQ, 1-methylethyl OPQ (R=CH(CH3)2)], the IC50 ([1]; Example 2, Table 7) was 3.14 µM and the IC50 ([2]; Example 4, Table 9) was 200 µM.
Compound `O=C(O)c1cc(C(=O)O)c2c(n1)c1nc(CO)oc1c1cc(C(=O)O)[nH]c12` [Hydroxymethyl OPQ, hydroxymethyl OPQ (R=CH2 OH)] has an IC50 ([1]; Example 2, Table 7) of 3.52 µM and an IC50 ([2]; Example 4, Table 9) of 305 µM.
With `CSCCc1nc2c3nc(C(=O)O)cc(C(=O)O)c3c3[nH]c(C(=O)O)cc3c2o1` [2-Methylthioethyl OPQ, 2-methylthioethyl OPQ (R= CH2 CH2 SCH3)] the Creatinine (mice [3]; mouse serum, 40 mg/kg) was 0.76 ± 0.05 mg/dL, the Glucose (mice [3]; mouse serum, 40 mg/kg) was 96 ± 26 mg/dL and the Urea nitrogen (mice [3]; mouse serum, 40 mg/kg) was 26 ± 4 mg/dL. For the same compound, the Creatinine (mice [3]; mouse serum, 80 mg/kg) was 0.68 ± 0.08 mg/dL, the Glucose (mice [3]; mouse serum, 80 mg/kg) was 88 ± 29 mg/dL and the Urea nitrogen (mice [3]; mouse serum, 80 mg/kg) was 26 ± 5 mg/dL. It also gave a Creatinine (mice [3]; mouse serum, 160 mg/kg) of 0.64 ± 0.05 mg/dL, a Glucose (mice [3]; mouse serum, 160 mg/kg) of 97 ± 22 mg/dL and a Urea nitrogen (mice [3]; mouse serum, 160 mg/kg) of 26 ± 3 mg/dL. The Creatinine (mice [3]; mouse serum, 200 mg/kg) was 0.73 ± 0.06 mg/dL, the Glucose (mice [3]; mouse serum, 200 mg/kg) was 72 ± 16 mg/dL and the Urea nitrogen (mice [3]; mouse serum, 200 mg/kg) was 26 ± 2 mg/dL. For the same compound, the glucose in urine (mice [4]; 20 mg/kg) was “-”, the glucose in urine (mice [4]; 40 mg/kg) was “-” and the glucose in urine (mice [4]; 80 mg/kg) was “-”. The glucose in urine (mice [4]; 160 mg/kg) was “-”, the glucose in urine (mice [4]; 200 mg/kg) was “-” and the IC50 ([1]; Example 2, Table 7) was 3.94 µM. For the same compound, the IC50 ([2]; Example 4, Table 9) was 200 µM.
`O=C(O)c1cc(C(=O)O)c2c(n1)c1nc(Cc3ccc(O)cc3)oc1c1cc(C(=O)O)[nH]c12` [4-Hydroxyphenylmethyl OPQ, 4-hydroxyphenylmethyl OPQ] showed an IC50 ([1]; Example 2, Table 7) of 4.12 µM and an IC50 ([2]; Example 4, Table 9) of 314 µM.
With `O=C(O)c1cc(C(=O)O)c2c(n1)C(=O)C(=O)c1cc(C(=O)O)[nH]c1-2` [PQQ.2Na, reference compound] the “Judgement 1 (No haze was seen in crystal lens), eggs” value [5] was 1/5, the “Judgement 2 (Slight opaque ring was seen in crystal lens), eggs” value [5] was 2/5 and the “Judgement 4 ~ 5 (white haze of pinhole size in nucleus ~ whole nucleus hazed in white), eggs” value [5] was 2/5. The “contents of glucose, urea nitrogen and creatinine in serum” value (mice [3]; mouse, in vivo) was “Sharp reduction of glucose and much increase of urea nitrogen and creatinine”, the “kidney toxicity” value (mice [3]; mouse, in vivo) was “kidney toxicity was recognized” and the Creatinine (mice [3]; mouse, in vivo, 20 mg/kg) was 0.8 ± 0.1 mg/dL. For the same compound, the Glucose (mice [3]; mouse, in vivo, 20 mg/kg) was 70 ± 13 mg/dL, the Urea nitrogen (mice [3]; mouse, in vivo, 20 mg/kg) was 25 ± 3 mg/dL and the Creatinine (mice [3]; mouse, in vivo, 40 mg/kg) was 2.3 ± 1.0 mg/dL. It also gave a Glucose (mice [3]; mouse, in vivo, 40 mg/kg) of 60 ± 12 mg/dL, a Urea nitrogen (mice [3]; mouse, in vivo, 40 mg/kg) of 110 ± 38 mg/dL and a Creatinine (mice [3]; mouse, in vivo, 80 mg/kg) of 3.4 ± 0.4 mg/dL. It also gave a Glucose (mice [3]; mouse, in vivo, 80 mg/kg) of 57 ± 15 mg/dL, a Urea nitrogen (mice [3]; mouse, in vivo, 80 mg/kg) of 130 ± 18 mg/dL and a Creatinine (mice [3]; mouse, in vivo, 160 mg/kg) of 4.1 ± 0.2 mg/dL. The Glucose (mice [3]; mouse, in vivo, 160 mg/kg) was 35 ± 7 mg/dL, the Urea nitrogen (mice [3]; mouse, in vivo, 160 mg/kg) was 139 ± 3 mg/dL and the mice died (male mice SPF-ICR; 40 mg/kg) was “No mice died”. For the same compound, the mice died (male mice SPF-ICR; 80 mg/kg) was “five mice died”, the mice died (male mice SPF-ICR; 160 mg/kg) was “eight mice all died” and the mice died (male mice SPF-ICR; 200 mg/kg) was “eight mice all died”. For the same compound, the “glucose detected in urine” value (mice [4]) was “glucose was detected in urine”, the glucose in urine (mice [4]; 20 mg/kg) was “-” and the glucose in urine (mice [4]; 40 mg/kg) was “-”. The glucose in urine (mice [4]; 80 mg/kg) was “-”, the IC50 ([1]; Example 1, Table 6) was 0.0383 µM and the IC50 ([2]; Example 3, Table 8) was 64 µM. For the same compound, the Membrane permeation constant [6] was 0.68 ± 0.36 10 ^-7 cm^2 · sec^-1.
With `CCOC(=O)c1cc(C(=O)OCC)c2c(n1)C(=O)C(=O)c1cc(C(=O)OCC)[nH]c1-2` [PQQ triethyl ester] the Membrane permeation constant [6] was 1.22 ± 0.37 10 ^-7 cm^2 · sec^-1 and the “membrane permeation constant relative to that of PQQ.2Na” value [6] was “about twice”.
Compound PQQ monomethyl ester has an IC50 ([1]; Example 1, Table 6) of 0.0609 µM.
`CCC(C)c1nc2c3nc(C(=O)O)cc(C(=O)O)c3c3[nH]c(C(=O)O)cc3c2o1` (stereo not drawn) [1-Methylpropyl OPQ, 1-methylpropyl OPQ (R=CH(CH3)CH2 CH3)] gave a Creatinine (mice [3]; mouse serum, 40 mg/kg) of 0.80 ± 0.08 mg/dL, a Glucose (mice [3]; mouse serum, 40 mg/kg) of 87 ± 20 mg/dL and a Urea nitrogen (mice [3]; mouse serum, 40 mg/kg) of 26 ± 1 mg/dL. It also gave a Creatinine (mice [3]; mouse serum, 80 mg/kg) of 0.78 ± 0.04 mg/dL, a Glucose (mice [3]; mouse serum, 80 mg/kg) of 104 ± 19 mg/dL and a Urea nitrogen (mice [3]; mouse serum, 80 mg/kg) of 22 ± 3 mg/dL. The Creatinine (mice [3]; mouse serum, 160 mg/kg) was 0.78 ± 0.04 mg/dL, the Glucose (mice [3]; mouse serum, 160 mg/kg) was 87 ± 22 mg/dL and the Urea nitrogen (mice [3]; mouse serum, 160 mg/kg) was 27 ± 4 mg/dL. For the same compound, the Creatinine (mice [3]; mouse serum, 200 mg/kg) was 0.83 ± 0.17 mg/dL, the Glucose (mice [3]; mouse serum, 200 mg/kg) was 66 ± 11 mg/dL and the Urea nitrogen (mice [3]; mouse serum, 200 mg/kg) was 27 ± 6 mg/dL. The glucose in urine (mice [4]; 20 mg/kg) was “-”, the glucose in urine (mice [4]; 40 mg/kg) was “-” and the glucose in urine (mice [4]; 80 mg/kg) was “-”. For the same compound, the glucose in urine (mice [4]; 160 mg/kg) was “-”, the glucose in urine (mice [4]; 200 mg/kg) was “-” and the IC50 ([1]; Example 2, Table 7) was 3.53 µM. For the same compound, the IC50 ([2]; Example 4, Table 9) was 252 µM.
